# Measured values as given in patent US12723063B2, “GIPR-agonist compounds” (Eli Lilly and Company, priority 2019, dated 2026).
# *1 amine or outer side, *2 acyl side, *3 side chain or, on linkers, in order; H or OH if unused. Where a SMILES comes first, the peptide text is derived from it. Side-chain parts run from the residue outwards. [ ]: non-standard residue; d: D form. The star is where a group is joined. C20 diacid = O=C(O)CCCCCCCCCCCCCCCCCCC(=O)*; αMePhe(2-F) = C[C@](N)(Cc1ccccc1F)C(=O)O; γGlu = O=C(O)[C@H](CCC(=O)[*:2])N[*:1]; 4Pal = N[C@@H](Cc1ccncc1)C(=O)O; αMeL = CC(C)C[C@](C)(N)C(=O)O; Iva = CC[C@](C)(N)C(=O)O; AEEA = NCCOCCOCC(=O)O; Aib = CC(C)(N)C(=O)O
# Experiments:
# Assay in all cases: cAMP functional assay (HTRF) in HEK293 cells in presence of 0.1% casein
# Type in all cases: cell-based
# [1] = target: T1, human glucose-dependent insulinotropic peptide receptor (GIPR) (Homo sapiens, UniProt P48546); details: HEK293 cells expressing human GIPR, geometric mean, read-out: hGIPR cAMP Rel EC50 nM (SEM, n)
# T1 construct: expressed in transfected cells; host or cells: HEK293
# T1 sequence (P48546 22-466): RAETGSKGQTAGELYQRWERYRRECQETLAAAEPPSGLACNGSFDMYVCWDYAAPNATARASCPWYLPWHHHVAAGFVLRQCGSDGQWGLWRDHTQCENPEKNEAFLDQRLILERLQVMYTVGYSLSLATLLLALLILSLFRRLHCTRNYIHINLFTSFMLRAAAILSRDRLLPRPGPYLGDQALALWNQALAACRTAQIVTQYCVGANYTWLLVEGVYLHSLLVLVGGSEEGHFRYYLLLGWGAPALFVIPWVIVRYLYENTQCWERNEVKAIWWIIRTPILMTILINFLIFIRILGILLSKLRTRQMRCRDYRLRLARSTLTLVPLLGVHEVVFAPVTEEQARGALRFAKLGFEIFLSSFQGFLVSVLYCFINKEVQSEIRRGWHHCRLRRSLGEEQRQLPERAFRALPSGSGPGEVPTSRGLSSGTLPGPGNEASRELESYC
# [2] = target: T2, human GLP-1 receptor (GLP-1R) (Homo sapiens, UniProt P43220); details: HEK293 cells expressing human GLP-1R, geometric mean, read-out: hGLP1R cAMP Rel EC50 nM (SEM, n)
# T2 construct: expressed in transfected cells; host or cells: HEK293
# [3] = target: T3, human glucagon receptor (GcgR) (Homo sapiens, UniProt P47871); details: HEK293 cells expressing human GcgR, geometric mean, read-out: hGcgR cAMP Rel EC50 nM (SEM, n)
# T3 construct: expressed in transfected cells; host or cells: HEK293
# T3 sequence (P47871 26-477): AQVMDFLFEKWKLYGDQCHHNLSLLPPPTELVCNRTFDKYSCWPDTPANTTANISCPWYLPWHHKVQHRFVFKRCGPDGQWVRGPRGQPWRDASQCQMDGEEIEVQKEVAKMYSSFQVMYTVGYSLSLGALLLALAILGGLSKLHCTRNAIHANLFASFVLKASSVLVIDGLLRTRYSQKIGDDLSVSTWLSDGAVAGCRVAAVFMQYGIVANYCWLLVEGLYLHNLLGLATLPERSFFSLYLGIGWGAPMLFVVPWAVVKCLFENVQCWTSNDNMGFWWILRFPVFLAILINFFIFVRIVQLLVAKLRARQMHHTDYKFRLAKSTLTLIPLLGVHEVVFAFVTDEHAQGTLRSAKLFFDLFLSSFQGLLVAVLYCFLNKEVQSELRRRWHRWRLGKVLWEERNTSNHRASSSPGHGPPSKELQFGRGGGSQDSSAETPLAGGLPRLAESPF
# T2 sequence (P43220 24-463): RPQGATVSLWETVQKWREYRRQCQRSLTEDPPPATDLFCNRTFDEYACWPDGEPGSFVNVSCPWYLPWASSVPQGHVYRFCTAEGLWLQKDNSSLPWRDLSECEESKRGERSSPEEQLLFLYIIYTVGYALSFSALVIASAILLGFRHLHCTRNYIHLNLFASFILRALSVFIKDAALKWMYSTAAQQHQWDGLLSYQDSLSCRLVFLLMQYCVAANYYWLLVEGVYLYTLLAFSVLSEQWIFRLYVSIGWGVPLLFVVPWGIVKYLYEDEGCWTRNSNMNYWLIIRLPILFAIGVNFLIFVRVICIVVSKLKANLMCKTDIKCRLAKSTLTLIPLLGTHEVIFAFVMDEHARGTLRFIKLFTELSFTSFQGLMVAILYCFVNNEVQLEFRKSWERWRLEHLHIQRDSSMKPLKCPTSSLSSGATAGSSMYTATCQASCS
Structure (SMILES),EC50 [1],EC50 [2],EC50 [3]
CC[C@H](C)[C@H](NC(=O)[C@H](CO)NC(=O)[C@H](Cc1ccc(O)cc1)NC(=O)[C@H](CC(=O)O)NC(=O)[C@H](CO)NC(=O)[C@@H](NC(=O)[C@](C)(Cc1ccccc1F)NC(=O)[C@@H](NC(=O)CNC(=O)[C@H](CCC(=O)O)NC(=O)C(C)(C)NC(=O)[C@@H](N)Cc1ccc(O)cc1)[C@@H](C)O)[C@@H](C)CC)C(=O)N[C@@H](C)C(=O)N[C@@H](CC(C)C)C(=O)N[C@@H](CC(=O)O)C(=O)N[C@@H](CCCCN)C(=O)N[C@@H](CCCCNC(=O)COCCOCCNC(=O)COCCOCCNC(=O)CC[C@H](NC(=O)CCCCCCCCCCCCCCCCCCC(=O)O)C(=O)O)C(=O)N[C@@H](Cc1c[nH]cn1)C(=O)N[C@@H](CCC(N)=O)C(=O)NC(C)(C)C(=O)N[C@@H](CCC(=O)O)C(=O)N[C@@H](Cc1ccccc1)C(=O)N[C@H](C(=O)N[C@@H](CC(N)=O)C(=O)N[C@@H](Cc1ccc(O)cc1)C(=O)N[C@@H](CC(C)C)C(=O)N[C@@H](CC(C)C)C(=O)N[C@@H](C)C(=O)N[C@H](C(=O)NCC(=O)N1CCC[C@H]1C(=O)N[C@@H](CO)C(=O)N[C@@H](CO)C(=O)NCC(=O)N[C@@H](C)C(=O)N1CCC[C@H]1C(=O)N1CCC[C@H]1C(=O)N1CCC[C@H]1C(=O)N[C@@H](CO)C(N)=O)[C@@H](C)O)C(C)C [Example 34] (H-Y[Aib]EGT[αMePhe(2-F)]ISDYSIALDKK([AEEA-AEEA-γGlu-C20 diacid])HQ[Aib]EFVNYLLATGPSSGAPPPS-NH2),0.0177 nM,462 nM,913 nM
CC[C@H](C)[C@H](NC(=O)[C@H](CO)NC(=O)[C@H](Cc1ccc(O)cc1)NC(=O)[C@H](CC(=O)O)NC(=O)[C@H](CO)NC(=O)[C@@H](NC(=O)[C@](C)(CC)NC(=O)[C@@H](NC(=O)CNC(=O)[C@H](CCC(=O)O)NC(=O)C(C)(C)NC(=O)[C@@H](N)Cc1ccc(O)cc1)[C@@H](C)O)[C@@H](C)CC)C(=O)N[C@@](C)(CC(C)C)C(=O)N[C@@H](CC(C)C)C(=O)N[C@@H](CC(=O)O)C(=O)N[C@@H](CCCCN)C(=O)N[C@@H](CCCCNC(=O)COCCOCCNC(=O)COCCOCCNC(=O)CC[C@H](NC(=O)CCCCCCCCCCCCCCCCCCC(=O)O)C(=O)O)C(=O)N[C@@H](Cc1c[nH]cn1)C(=O)N[C@@H](CCC(N)=O)C(=O)NC(C)(C)C(=O)N[C@@H](CC(=O)O)C(=O)N[C@@H](Cc1ccccc1)C(=O)N[C@H](C(=O)N[C@@H](CCC(=O)O)C(=O)N[C@@H](Cc1ccncc1)C(=O)N[C@@H](CC(C)C)C(=O)N[C@@H](CC(C)C)C(=O)N[C@@H](C)C(=O)NCC(=O)NCC(=O)N1CCC[C@H]1C(=O)N[C@@H](CO)C(=O)N[C@@H](CO)C(=O)NCC(=O)N[C@@H](C)C(=O)N1CCC[C@H]1C(=O)N1CCC[C@H]1C(=O)N1CCC[C@H]1C(=O)N[C@@H](CO)C(N)=O)C(C)C [Example 55] (H-Y[Aib]EGT[Iva]ISDYSI[αMeL]LDKK([AEEA-AEEA-γGlu-C20 diacid])HQ[Aib]DFVE[4Pal]LLAGGPSSGAPPPS-NH2),0.017 nM,> 5000 nM,> 5000 nM
CC[C@H](C)[C@H](NC(=O)[C@H](Cc1ccccc1)NC(=O)[C@@H](NC(=O)CNC(=O)[C@H](CCC(=O)O)NC(=O)C(C)(C)NC(=O)[C@@H](N)Cc1ccc(O)cc1)[C@@H](C)O)C(=O)N[C@@H](CO)C(=O)N[C@@H](CC(=O)O)C(=O)N[C@@H](Cc1ccc(O)cc1)C(=O)N[C@@H](CO)C(=O)N[C@H](C(=O)N[C@@](C)(CC(C)C)C(=O)N[C@@H](CC(C)C)C(=O)N[C@@H](CC(=O)O)C(=O)N[C@@H](CCCCN)C(=O)N[C@@H](CCCCNC(=O)COCCOCCNC(=O)COCCOCCNC(=O)CC[C@H](NC(=O)CCCCCCCCCCCCCCCCC(=O)O)C(=O)O)C(=O)N[C@@H](Cc1c[nH]cn1)C(=O)N[C@@H](CCC(N)=O)C(=O)NC(C)(C)C(=O)N[C@@H](CC(=O)O)C(=O)N[C@@H](Cc1ccccc1)C(=O)N[C@H](C(=O)N[C@@H](CCC(=O)O)C(=O)N[C@@H](Cc1ccncc1)C(=O)N[C@@H](CC(C)C)C(=O)N[C@@H](CC(C)C)C(=O)N[C@@H](C)C(=O)NCC(=O)NCC(=O)N1CCC[C@H]1C(=O)N[C@@H](CO)C(=O)N[C@@H](CO)C(=O)NCC(=O)N[C@@H](C)C(=O)N1CCC[C@H]1C(=O)N1CCC[C@H]1C(=O)N1CCC[C@H]1C(=O)N[C@@H](CO)C(N)=O)C(C)C)[C@@H](C)CC [Example 49],0.0156 nM,> 5000 nM,2860 nM
CC[C@H](C)[C@H](NC(=O)[C@H](CO)NC(=O)[C@H](Cc1ccc(O)cc1)NC(=O)[C@H](CC(=O)O)NC(=O)[C@H](CO)NC(=O)[C@@H](NC(=O)[C@](C)(Cc1ccccc1F)NC(=O)[C@@H](NC(=O)CNC(=O)[C@H](CCC(=O)O)NC(=O)C(C)(C)NC(=O)[C@@H](N)Cc1ccc(O)cc1)[C@@H](C)O)[C@@H](C)CC)C(=O)N[C@@H](C)C(=O)N[C@@H](CC(C)C)C(=O)N[C@@H](CC(=O)O)C(=O)N[C@@H](CCCCN)C(=O)N[C@@H](CCCCNC(=O)COCCOCCNC(=O)COCCOCCNC(=O)CC[C@H](NC(=O)CCCCCCCCCCCCCCCCCCC(=O)O)C(=O)O)C(=O)N[C@@H](Cc1c[nH]cn1)C(=O)N[C@@H](CCC(N)=O)C(=O)NC(C)(C)C(=O)N[C@@H](CC(=O)O)C(=O)N[C@@H](Cc1ccccc1)C(=O)N[C@H](C(=O)N[C@@H](CCC(=O)O)C(=O)N[C@@H](Cc1ccc(O)cc1)C(=O)N[C@@H](CC(C)C)C(=O)N[C@@H](CC(C)C)C(=O)N[C@@H](CCC(=O)O)C(=O)NCC(=O)NCC(=O)N1CCC[C@H]1C(=O)N[C@@H](CO)C(=O)N[C@@H](CO)C(=O)NCC(=O)N[C@@H](C)C(=O)N1CCC[C@H]1C(=O)N1CCC[C@H]1C(=O)N1CCC[C@H]1C(=O)N[C@@H](CO)C(N)=O)C(C)C [Example 37] (H-Y[Aib]EGT[αMePhe(2-F)]ISDYSIALDKK([AEEA-AEEA-γGlu-C20 diacid])HQ[Aib]DFVEYLLEGGPSSGAPPPS-NH2),0.036 nM,61.1 nM,> 5000 nM
CC[C@H](C)[C@H](NC(=O)[C@H](Cc1ccccc1)NC(=O)[C@@H](NC(=O)CNC(=O)[C@H](CCC(=O)O)NC(=O)C(C)(C)NC(=O)[C@@H](N)Cc1ccc(O)cc1)[C@@H](C)O)C(=O)N[C@@H](CO)C(=O)N[C@@H](CC(=O)O)C(=O)N[C@@H](Cc1ccc(O)cc1)C(=O)N[C@@H](CO)C(=O)N[C@H](C(=O)N[C@@](C)(CC(C)C)C(=O)N[C@@H](CC(C)C)C(=O)N[C@@H](CC(=O)O)C(=O)N[C@@H](CCCCN)C(=O)N[C@@H](CCCCNC(=O)COCCOCCNC(=O)COCCOCCNC(=O)CC[C@H](NC(=O)CCCCCCCCCCCCCCCCCCC(=O)O)C(=O)O)C(=O)N[C@@H](Cc1c[nH]cn1)C(=O)N[C@@H](CCC(N)=O)C(=O)NC(C)(C)C(=O)N[C@@H](CC(=O)O)C(=O)N[C@@H](Cc1ccccc1)C(=O)N[C@H](C(=O)N[C@@H](CCC(=O)O)C(=O)N[C@@H](Cc1ccncc1)C(=O)N[C@@H](CC(C)C)C(=O)N[C@@H](CC(C)C)C(=O)N[C@@H](CCC(=O)O)C(=O)NCC(=O)NCC(=O)N1CCC[C@H]1C(=O)N[C@@H](CO)C(=O)N[C@@H](CO)C(=O)NCC(=O)N[C@@H](C)C(=O)N1CCC[C@H]1C(=O)N1CCC[C@H]1C(=O)N1CCC[C@H]1C(=O)N[C@@H](CO)C(N)=O)C(C)C)[C@@H](C)CC [Example 47] (H-Y[Aib]EGTFISDYSI[αMeL]LDKK([AEEA-AEEA-γGlu-C20 diacid])HQ[Aib]DFVE[4Pal]LLEGGPSSGAPPPS-NH2),0.0234 nM,> 5000 nM,757 nM
CC[C@H](C)[C@H](NC(=O)[C@H](Cc1ccccc1)NC(=O)[C@@H](NC(=O)CNC(=O)[C@H](CCC(=O)O)NC(=O)C(C)(C)NC(=O)[C@@H](N)Cc1ccc(O)cc1)[C@@H](C)O)C(=O)N[C@@H](CO)C(=O)N[C@@H](CC(=O)O)C(=O)N[C@@H](Cc1ccc(O)cc1)C(=O)N[C@@H](CO)C(=O)N[C@H](C(=O)N[C@@](C)(CC(C)C)C(=O)N[C@@H](CC(C)C)C(=O)N[C@@H](CC(=O)O)C(=O)N[C@@H](CCCCN)C(=O)N[C@@H](CCCCNC(=O)COCCOCCNC(=O)COCCOCCNC(=O)CC[C@H](NC(=O)CCCCCCCCCCCCCCCCCCC(=O)O)C(=O)O)C(=O)N[C@@H](Cc1c[nH]cn1)C(=O)N[C@@H](CCC(N)=O)C(=O)NC(C)(C)C(=O)N[C@@H](CCC(=O)O)C(=O)N[C@@H](Cc1ccccc1)C(=O)N[C@H](C(=O)N[C@@H](CCC(=O)O)C(=O)N[C@@H](Cc1ccc(O)cc1)C(=O)N[C@@H](CC(C)C)C(=O)N[C@@H](CC(C)C)C(=O)N[C@@H](CCC(=O)O)C(=O)N[C@H](C(=O)NCC(=O)N1CCC[C@H]1C(=O)N[C@@H](CO)C(=O)N[C@@H](CO)C(=O)NCC(=O)N[C@@H](C)C(=O)N1CCC[C@H]1C(=O)N1CCC[C@H]1C(=O)N1CCC[C@H]1C(=O)N[C@@H](CO)C(N)=O)[C@@H](C)O)C(C)C)[C@@H](C)CC [Example 64] (H-Y[Aib]EGTFISDYSI[αMeL]LDKK([AEEA-AEEA-γGlu-C20 diacid])HQ[Aib]EFVEYLLETGPSSGAPPPS-NH2),0.0448 nM,> 5000 nM,3070 nM
